Assays:
MEG-01 cells [1] = assay: Apoptosis by phosphatidylserine redistribution (FITC-annexin V flow cytometry) in MEG-01 cells; type: cell-based, human; conditions: 48 hours; for Percentage of positive cells for phosphatidylserine (cells in apoptosis) in MEG-01 cells: untreated cells 12%
Method: Redistribution of plasma membrane phosphatidylserine is a characteristic of cells undergoing apoptosis (Martin et al., J. Exp. Med., 182:1545, 1995). The redistribution of phosphatidylserine in the plasma membrane during apoptosis was measured by flow cytometry using FITC (fluorescein isothiocyanate)-conjugated annexin V (BD Pharmingen, San Diego, Calif.). MEG-01 cells, a human chronic myelogeneous leukemia cell line positive for the Philadelphia chromosome and having a BCR-ABL gene fusion, were incubated at 2.5×10^5 cells/ml for 48 hours with 5.3, 26.5 and 53.0 μM final concentrations of SEQ ID NO:1, SEQ ID NO:2, SEQ ID NO:5, SEQ ID NO:6 and cholesteryl-TEG phosphoramidite molecule. The percentage of cells in apoptosis after exposure to the SEQ ID NOs:1, 2, 5, 6, or cholesteryl-TEG phosphoramidite treatment is reported in Table 2. The percentage of apoptosis in untreated MEG-01 cells was 12%.

MEG-01 cells [2] = assay: Cell cycle stage in MEG-01 cells (propidium iodide flow cytometry); type: cell-based, human; conditions: 24 h
Method: To determine a cell cycle stage, various assays and procedures known to one skilled in the art may be employed. One such procedure uses a CYCLETEST™ PLUS DNA commercial kit (Becton Dickinson, Franklin Lakes, N.J.). Briefly, nuclei from cells are obtained by dissolving the cell membrane in a nonionic detergent, eliminating the cell cytoskeleton and nuclear proteins with trypsin, digesting the cellular RNA with RNase, and stabilizing the nuclear chromatin with spermine. Propidium iodide is added to the cell nuclei and their fluorescence was analyzed in a flow cytometer equipped with electronic doublet discrimination capability (FACSCalibur, Becton Dickinson, Franklin Lakes, N.J.). Accumulation of cells in G0/G1, early S (SE), mid S (SM), late S (SL) or G2/M phases of the cell cycle may be analyzed using MODFIT LT software (Verity Software House Inc., Topsham, Mass.), or other appropriate software.
Exponentially growing MEG-01 cells (2×10^5 cells/ml) were incubated for 24 h with 0 μM (control), 53 μM of SEQ ID NO:2 or 53 μM of SEQ ID NO:6. The cells were collected, centrifuged, and cell cycle stage was determined.

Hs578T cells = assay: Release of nuclear mitotic apparatus protein (NuMA) by Hs578T cells (ELISA); type: cell-based, human; conditions: Hs578T monolayer, 53 μM, 72 hrs; percentage increase
Method: Hs578T cells were cultured as monolayer in negative control conditions or with 53 μM final concentraition of SEQ ID NO:2, 53 μM of SEQ ID NO:6 for 72 hrs. The release of nuclear mitotic apparatus protein (NuMA) was used as a measure of apoptosis. NuMA was determined using a commercial ELISA kit following the manufacturer's protocol. Results are shown in Table 11 and are expressed as the percentage increase in NuMA release compared to control conditions based on optical density measurements.

HIG-82 cells [3] = assay: HIG-82 synovial cell proliferation (MTT reduction); type: cell-based, rabbit; conditions: 53 μM, 48 hours
Method: Adherent HIG-82 cells, a synovial cell line, were incubated at 10×10^5 cells/ml for 48 hours with 53 μM (final concentration) of SEQ ID NO:2, SEQ ID NO:3, SEQ ID NO:4, SEQ ID NO:6, SEQ ID NO:7, or SEQ ID NO:8. Cellular proliferation was measured using dimethylthiazol-diphenyl-tetrazolium (MTT) reduction (Mosman et al., J. Immunol. Methods 65:55, 1983). MTT was measured at a wavelength of 570 nm using a multiple spectrophotometer reader (ELX800, Bio-TEK, Instruments Inc., Winooski, Vt.). The percentage of inhibition, calculated as […]

HIG-82 cells [4] = assay: Apoptosis by nuclear DNA fragmentation (TUNEL, flow cytometry) in HIG-82 cells; type: cell-based, rabbit; conditions: 53 μM
Method: Adherent HIG-82 cells were incubated at 1.0×10^5 cells/ml for 48 hours with 53 μM final concentration of SEQ ID NO:1, SEQ ID NO:2, SEQ ID NO:5 or SEQ ID NO:6. Since phosphatidylserine/annexin V detection of apoptosis was not reliable after adherent cell harvesting techniques, such as trypsinization (van Engeland, Cytometry, 31:1, 1998), apoptosis in HIG-82 cells was evaluated using flow cytometry by the detection of fragmented DNA by terminal deoxynucleotidyl transferase enzyme-mediated bromodeoxyuridine triphosphate-biotin nick end-labeling (TUNEL) using a commercial assay (APO-BRDU™ kit; BD Pharmingen). The percentage of cells containing nuclear DNA fragmentation was determined. After 24 hours, untreated HIG-82 cells were essentially negative for nuclear DNA fragmentation.

With “5′ OH-GGGAGG-OH 3′ (listed as DNA, chemistry not fully specified) [SEQ ID NO:2]” the “Percentage of positive cells for phosphatidylserine (cells in apoptosis) in MEG-01 cells” value (from here on “Percentage of positive cells”) (MEG-01 cells [1]; 5.3 μM) was 12%, the “Percentage of positive cells” value (MEG-01 cells [1]; 26.5 μM) was 12% and the “Percentage of positive cells” value (MEG-01 cells [1]; 53.0 μM) was 12%. The “Induction of apoptosis in MEG-01 cells (in words)” value (MEG-01 cells [1]; translocation of phosphatidylserine, up to 53.0 μM) was “inactive”, the “Induction of cell cycle arrest in MEG-01 cells (in words)” value (MEG-01 cells [2]; 53 μM) was “inactive” and the “% of cells in phase SM” value (MEG-01 cells [2]; MEG-01, 53 μM, untreated 10.8) was 11.6%. The “% of cells in phase SL + G2/M” value (MEG-01 cells [2]; MEG-01, 53 μM, untreated 17.8) was 19.8%, the “% of cells in phase G0/G1 + SE” value (MEG-01 cells [2]; MEG-01, 53 μM, untreated 71.4) was 68.6% and the “NuMA release compared to control (%)” value (Hs578T cells) was “+8%”. For the same substance, the “Inhibition of proliferation of synovial HIG-82 cells (in words)” value (HIG-82 cells [3]) was “did not inhibit proliferation”, the “Inhibition of HIG-82 cell proliferation, inhibition (%)” value (HIG-82 cells [3]; MTT) was 6% and the “Percentage of cells containing DNA fragmentation (cells in apoptosis) in HIG-82 cells” value (HIG-82 cells [4]; 48 hours, TUNEL) was 1%. For the same substance, the “Induction of apoptosis in HIG-82 cells (in words)” value (HIG-82 cells [4]; fragmented nuclear DNA) was “inactive”.

Reference: patent US7635686B2, “Therapeutically useful triethyleneglycol cholesteryl oligonucleotides” (Bioniche Life Sciences, Inc., priority 2001, dated 2009)
